Measurements: the METLIN SMRT retention time set (Domingo-Almenara et al. 2019)

Experiment: gradient 5% acetonitrile 3 min, to 50% in 2 min, to 85% in 15 min, held 3 min, 100 µL/min
Details: column: Zorbax Extend-C18 2.1 x 50 mm; eluents: water / acetonitrile, 0.1% formic acid
Summary of the method: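 Using water and acetonitrile that each contained 0.1% formic acid, mixtures of ~100 pure standards were separated at 100 μL/min on a Zorbax Extend-C18 column (2.1 × 50 mm, 1.8 μm). The HPLC fed a quadrupole time-of-flight mass spectrometer working in positive and negative ionization mode, with dead and dwell volumes of 40 μL and 900 μL. Data were acquired over 3 months. Retention time was read from computationally picked adduct peaks after manual inspection of each.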

## Cc1ccc(-n2c(N3CCCC(C(=O)NCc4ccc(C)c(C)c4)C3)nc3ccsc3c2=O)cc1 (stereo not drawn)
  RP-LC retention time: 987 s

## Cc1nn(C2CCS(=O)(=O)C2)c(C)c1S(=O)(=O)NCc1ccco1 (stereo not drawn)
  RP-LC retention time: 638 s

## CN(C)C(=O)C1CCN(c2nc3ccc(-c4ccsc4)nc3s2)CC1
  RP-LC retention time: 839 s

## Cc1cccc(-c2c3c(=O)n(C)c(=O)n(C)c3c3n2CCOC3c2c(C)n(C)c(=O)n(C)c2=O)c1 (stereo not drawn)
  RP-LC retention time: 746 s

## COC[C@@H]1CN(Cc2cccc(OC)c2OC)C[C@H]1c1ccccn1
  RP-LC retention time: 656 s

## Cn1c(C2CCN(C(=O)Nc3cccc(Cl)c3F)CC2)cc(=O)n2nccc12
  RP-LC retention time: 685 s

## CCOc1ccccc1C1CC(=O)NC(SCC(=O)Nc2nccs2)=C1C#N (stereo not drawn)
  RP-LC retention time: 734 s

## COc1ncc(C(=O)N2CCCCC2)cn1
  RP-LC retention time: 628 s

## O=C(Nc1ccccc1F)NC1CCCN(c2cc(-c3ccncc3)[nH]n2)C1 (stereo not drawn)
  RP-LC retention time: 621 s

## O=S(=O)(c1cccnc1)N1CC(c2nc(-c3ccncc3)no2)C1
  RP-LC retention time: 663 s

## COc1ccc(S(=O)(=O)N2CCCC(C(=O)Nc3ccc4c(c3)OCO4)C2)cc1OC (stereo not drawn)
  RP-LC retention time: 838 s

## CC(C(=O)N1CCN(c2ccccn2)CC1)n1c(=O)c(C(F)(F)F)nc2ccccc21 (stereo not drawn)
  RP-LC retention time: 696 s

## O=C(Nc1cccc(F)c1)N1CCCC1c1nc(-c2cccc(F)c2)no1 (stereo not drawn)
  RP-LC retention time: 994 s

## Brc1ccc(-c2ccc(CNCC3CCNCC3)o2)cc1
  RP-LC retention time: 597 s

## CNC(=O)c1ccsc1NC(=O)c1cccc(C(F)(F)F)c1
  RP-LC retention time: 1160 s

## Cc1noc(-c2ccnc(-n3ncc(C(=O)N4CCC(C)CC4)c3C)c2)n1
  RP-LC retention time: 946 s

## Cc1cccc(NS(=O)(=O)c2cc(-c3cc(C(F)(F)F)on3)sc2C)c1
  RP-LC retention time: 1150 s

## CCCn1cc(C(=O)Nc2ccc(S(N)(=O)=O)cc2)c(=O)c2ccc(C)nc21
  RP-LC retention time: 867 s

## O=C(Cn1c(C(F)(F)F)nc2cc3c(cc21)OCCO3)NCc1ccccc1
  RP-LC retention time: 829 s

## CCn1c(C2CC(=O)N(Cc3ccccc3)C2)nc2ccccc21 (stereo not drawn)
  RP-LC retention time: 650 s

## COc1ccc2c(c1)C1(CCN(C(=O)COc3ccc(Cl)cc3)C1)C(=O)N2C (stereo not drawn)
  RP-LC retention time: 878 s

## CNC(=O)c1c(NC(=O)c2ccc(C)cc2)sc2c1CCC2
  RP-LC retention time: 1070 s

## COCCCNC(=O)C1c2ccccc2C(=O)N1Cc1ccc(Cl)cc1 (stereo not drawn)
  RP-LC retention time: 770 s

## Cn1c(=O)oc2cc(-c3noc(-c4ccc(C#N)cc4)n3)ccc21
  RP-LC retention time: 988 s

## Cc1cc(C)c(CNC(=O)c2c(C)sc3ccn(C)c(=O)c23)c(C)c1
  RP-LC retention time: 921 s

## CCOc1ccc(-c2csc3c(=O)n(Cc4ccc(N5CCCC5=O)cc4)cnc23)cc1OCC
  RP-LC retention time: 929 s

## Cc1cc(=O)n(CC(=O)Nc2ccccc2)c(N2CCCCC2)n1
  RP-LC retention time: 670 s

## Cc1ccc(NC(=O)NC2CCN(c3ccc(C)c(C)c3)C2=O)cc1 (stereo not drawn)
  RP-LC retention time: 931 s

## O=C(NCc1ccc(F)cc1F)c1c(O)c2cccnc2n(Cc2ccccc2)c1=O
  RP-LC retention time: 1400 s

## O=C(c1cc(C2CC2)[nH]n1)N1CCN(c2ccc(Cl)cc2)CC1
  RP-LC retention time: 837 s

## CCCN(CC1CCOC1)C(=O)Nc1cc(C)ccc1OC (stereo not drawn)
  RP-LC retention time: 874 s

## Cc1nnc(-c2coc(S(=O)(=O)N3CCCCC3C)c2)o1 (stereo not drawn)
  RP-LC retention time: 809 s

## O=C(c1ccc(Br)o1)N1CCN(c2ccc(=O)n(-c3ccc(Cl)cc3)n2)CC1
  RP-LC retention time: 878 s

## Cc1ccc(S(=O)(=O)C2=C(O)C(=O)N(Cc3ccco3)C2c2ccc(Cl)cc2)cc1 (stereo not drawn)
  RP-LC retention time: 982 s

## Cc1ccc2nc(-c3cccnc3)cc(C(=O)Nc3nc(-c4ccccc4)c(C)s3)c2c1
  RP-LC retention time: 1070 s

## CSc1ccc(CNC(=O)C2CCCN(c3nc4c(s3)c(C)nn4-c3ccc(C)cc3)C2)cc1 (stereo not drawn)
  RP-LC retention time: 1210 s

## CC(=O)Nc1ccc2c(c1)CN(C(=O)c1ccc(C)cc1C)C(C(=O)N(C)C)C2 (stereo not drawn)
  RP-LC retention time: 778 s

## COc1ccc(N2CCN(C(=O)c3ccc4c(c3)NC(=O)C3CCCCN43)CC2)cc1 (stereo not drawn)
  RP-LC retention time: 756 s

## Cc1ccc(C)c(NC(=O)N2CCC3(CC2)NC(=O)c2ccc(F)cc2N3C)c1
  RP-LC retention time: 769 s

## O=C(Nc1ccc(N2CCOCC2)cc1)c1cccs1
  RP-LC retention time: 658 s

## CN(Cc1ccco1)C(=O)Cn1cccc1-c1nnc(-c2ccccc2)o1
  RP-LC retention time: 919 s

## CCCCCNC(=O)CN1c2ccc(F)cc2-c2ccccc2S1(=O)=O
  RP-LC retention time: 986 s

## COc1ccc(-c2nc(-c3nnn(-c4ccccc4)c3C)no2)c(OC)c1
  RP-LC retention time: 1000 s

## Cc1cc(N2CCCC2)nc(N2CCN(C(=O)c3ccccc3Br)CC2)n1
  RP-LC retention time: 579 s

## CCOc1ccc(C(C)NC(=O)C2CCN(c3cnc4nccnc4c3)CC2)cc1 (stereo not drawn)
  RP-LC retention time: 712 s

## Cn1ncc2c3ccccc3n(CC(=O)N3CCN(c4ncccn4)CC3)c2c1=O
  RP-LC retention time: 700 s

## CCN(CC)CCNC(=O)CCC(=O)N1CCc2c(c(C(=O)N3CCCC3)nn2C)C1
  RP-LC retention time: 578 s

## COC(=O)c1ccc(CN2CCN(c3cnn4cnnc4c3)CC2)cc1
  RP-LC retention time: 548 s

## CCOc1nc2c(c(C)nn2-c2ccccc2)c(C)c1CCC(=O)N1CCN(c2ccccn2)CC1
  RP-LC retention time: 822 s

## COc1cccc(NC(=O)C2CCCN(C(=O)C3Sc4ccccc4NC3=O)C2)c1 (stereo not drawn)
  RP-LC retention time: 786 s

## COc1ccc2c(c1)CC(NC(=O)N1CCN(Cc3ccc4c(c3)OCO4)CC1)CO2 (stereo not drawn)
  RP-LC retention time: 652 s

## Cc1ccn2cc(-c3ccc(NC(=O)COc4ccccc4)cc3)nc2n1
  RP-LC retention time: 663 s

## CC(=O)N1CCc2ccc(C(=O)N3CCOCC3)cc21
  RP-LC retention time: 602 s

## COc1ccc(-c2nnc(-c3ccccc3Cl)o2)cc1S(=O)(=O)N1CCOCC1
  RP-LC retention time: 871 s

## O=C(c1ccsc1)N1CCC(c2nncn2-c2ccccc2)CC1
  RP-LC retention time: 630 s

## O=C(Nc1ccccc1)C1CCCN(c2nccnc2Sc2ccccc2)C1 (stereo not drawn)
  RP-LC retention time: 1060 s

## CC(C)C[C@@H](C(=O)N[C@H](C(=O)OC1CCCC1)c1ccccc1)[C@H](O)C(=O)NO
  RP-LC retention time: 822 s

## CC1CCN(C(=O)C2CCCN(c3ccnc(-c4ccc(F)cc4)n3)C2)CC1 (stereo not drawn)
  RP-LC retention time: 706 s

## O=C(CC1CCCCC1)Nc1ccc(-c2nc(-c3ccccc3)co2)cc1
  RP-LC retention time: 1270 s

## CCn1cc(C(=O)NCc2ccc(C)cc2)c(S(=O)(=O)N2CCSCC2)n1
  RP-LC retention time: 944 s

## CN1C(=O)Cc2ccccc2C1C(=O)NCc1ccc(F)cc1 (stereo not drawn)
  RP-LC retention time: 706 s

## O=C(C1CCCC1)N1CCC(c2noc(-c3ccccc3)n2)C1 (stereo not drawn)
  RP-LC retention time: 924 s

## Cc1ccc(Cl)cc1NC(=O)C1CCN(S(=O)(=O)c2cc(C(=O)N(C)C)cs2)CC1
  RP-LC retention time: 846 s

## Cc1cc(C)cc(NS(=O)(=O)c2c[nH]c3ncccc23)c1
  RP-LC retention time: 758 s

## COc1ccc(NC(=O)Cn2c(C)nc3c(sc4nc(-c5ccccc5)ccc43)c2=O)cc1Cl
  RP-LC retention time: 1090 s

## CC(C)N1C(=O)c2cccnc2Sc2cc(NC(=O)C3CCC3)ccc21
  RP-LC retention time: 798 s

## Cc1csc(-c2ccc(N3CCN(C(=O)c4nn(C)c5ccccc45)CC3)nc2)n1
  RP-LC retention time: 864 s

## CCOc1ccccc1C(=O)n1nc(C)c(S(=O)(=O)N2CCOCC2)c1C
  RP-LC retention time: 962 s

## CCCN(C)S(=O)(=O)c1c(C)nn(-c2ccc(-c3ccccc3)nn2)c1C
  RP-LC retention time: 1080 s

## O=C(NCCSC12CC3CC(CC(C3)C1)C2)c1ccc(CN2C(=O)CCn3nccc32)cc1
  RP-LC retention time: 645 s

## O=C(C1CCN(c2ncnc3c2oc2ccccc23)CC1)N1CCN(c2ccccc2Cl)CC1
  RP-LC retention time: 930 s

## CC(C)C(NC(=O)c1ccsc1)C(=O)Nc1nc2ccccc2[nH]1 (stereo not drawn)
  RP-LC retention time: 666 s

## O=C(CC1CCN(C(=O)NCc2ccccc2)CC1)NCc1ccc(F)cc1
  RP-LC retention time: 737 s

## CCC(=O)N1CCc2cc(CNC(=O)c3ccnn3C)ccc21
  RP-LC retention time: 665 s

## O=C(Nc1nnc(-c2ccc(Cl)s2)o1)c1ccc2ncsc2c1
  RP-LC retention time: 733 s

## Cc1ccccc1NC(=O)Cn1c(N)nc(C)c(C)c1=O
  RP-LC retention time: 596 s

## Cc1ccc(NC(=O)N2CCC(c3cc(N)on3)CC2)cc1C
  RP-LC retention time: 728 s

## O=S(=O)(c1ccc(Br)s1)N1CCCC1c1nc(-c2ccc(F)cc2)no1 (stereo not drawn)
  RP-LC retention time: 1180 s

## CCN1CCN(S(=O)(=O)c2cc(-c3nc(C(C)C)cs3)sc2C)CC1
  RP-LC retention time: 744 s

## COc1ccc(OC)c(CNC(=O)C2CCCN(c3cnc4nccnc4c3)C2)c1 (stereo not drawn)
  RP-LC retention time: 710 s

## Cc1nc2cc(-c3noc(COc4ccc(F)cc4)n3)ccc2o1
  RP-LC retention time: 994 s

## Fc1ccccc1-c1nc(-c2cccc(-c3ccn[nH]3)c2)no1
  RP-LC retention time: 977 s

## Cc1ccc(CC(=O)Nc2ccc3nc(N4CCN(CC(=O)N(C)C)CC4)cc(C(=O)O)c3c2)cc1
  RP-LC retention time: 604 s

## O=C(Cn1cnc2c(sc3nc(-c4ccccc4)ccc32)c1=O)NCc1ccc2c(c1)OCO2
  RP-LC retention time: 950 s

## O=C(CSc1cn(CCNC(=O)c2ccccc2)c2ccccc12)Nc1ccccc1F
  RP-LC retention time: 863 s

## COc1ccccc1NS(=O)(=O)c1c[nH]c2ncccc12
  RP-LC retention time: 706 s

## Cc1cc(S(=O)(=O)N2CC(F)(F)C[C@H]2CN2CCc3ccccc3C2)ccc1F
  RP-LC retention time: 790 s

## O=C(CNC(=O)C1CCCCC1)Nc1ccc(S(=O)(=O)Nc2ccccc2Cl)cc1
  RP-LC retention time: 792 s
